From patent publication US8680054B2, “Suspension type topical formulations comprising cyclic depsipeptide” (Novartis AG, priority 2011, dated 2014)

Tests used:
[1] = Stability of the compound of formula (II) in hydrophilic environment; type: physicochemical
[2] = Solubility of the compound of formula (II); type: physicochemical

CC[C@H](C)[C@@H]1NC(=O)[C@H](Cc2ccc(O)cc2)N(C)C(=O)[C@H]([C@@H](C)CC)N2C(=O)[C@H](CC[C@H]2O)NC(=O)[C@H](CC(C)C)NC(=O)[C@@H](NC(=O)[C@H](CCC(N)=O)NC(=O)C(C)C)[C@@H](C)OC1=O [compound of formula (II)]
stability in the presence of water ([1]; presence of water): subject to hydrolysis | stability in a hydrophilic environment ([1]; water and polar organic solvents/co-solvents): tendency to degradeation | solubility in lipophilic excipients ([2]; lipophilic excipients): low solubility | solubility in polar organic solvents ([2]; polar organic solvents): good solubility | solubility in water and aqueous buffers ([2]; water and aqueous buffers): moderate solubility
